Here are results for six substances from patent US20050053575A1, “Antigenic product displaying multiple copies of an epitope of a deposit-forming polypeptide involved in plaque-forming diseases and methods of using same” (Ramot At Tel Aviv University Ltd, priority 2001, published 2005).

In assay [1] the test system is serum antibody raised against f88-EFRH. As to the kind of experiment: Competitive inhibition by peptides within βAP of serum antibody raised against f88-EFRH (ELISA). It is filed as binding. The settings on record: Nd = IC50 which cannot be detected by ELISA, read-out: Competitive inhibition of MICE SERUM antibody (IC50). An excerpt: The antibodies resulting from EFRH (SEQ ID NO:5) phage immunization are similar regarding their immunological properties to antibodies raised by direct injection with whole β-amyloid (Table 1). […] The high immunogenicity of filamentous phages enables the raising of antibodies against self-antigens.

Assay [2] deals with amyloid anti-aggregating antibody. Conditions: Frenkel et al. 1998; ELISA; Nd = IC50 which cannot be detected by ELISA; read-out: Competitive inhibition of anti-aggregating antibody (IC50); cited from earlier work.
Assay [3] relates to β-amyloid peptide 1-16 (EFRH-epitope). Briefly: Immunization of Balb/C mice; serum Ig titers by ELISA against the EFRH-epitope (β-amyloid peptide 1-16). It counts as in vivo. Conditions: i.p., filamentous phage as adjuvant, five injections; FIG. 10. Here is the method: Four mice (named A, B, C, D) were immunized at two week intervals with 100 μg of MAP-[…] (SEQ ID NO:1)+adjuvant (either Complete Freund's or Incomplete Freund's adjuvant) by intraperitoneal injection, and two mice were immunized with H2O+adjuvant as a negative control. All mice were 8 week old female mice.
In experiments of antibody binding to β-amyloid peptide 1-16, 100 ng/well biotinylated β-amyloid peptides 1-16 were bound to streptavidin-coated microtiter plates for ½ h at room temperature. ELISA plates were previously coated with streptavidin for 16 h at 4° C. after washing, bound antibodies to β-peptide were detected by incubation with horseradish peroxidase-conjugated antibodies, as previously described in Frenkel et al. (1999). The Ig type was measured with rabit anti-mouse IgG and anti-mouse IgM labeled with horseradish peroxidase.
Two female mice 8 weeks old (named A and B) were immunized at approximately two week intervals with 200 μg of MAP-(EFRH)2+filamentous phage as adjuvant by intraperitoneal injection.
Two female mice 8 weeks old (named G and H) were immunized at approximately two week intervals with the streptavidin and biotinylated MAP-[…] (SEQ ID NO:1) complex (100 μg of MAP-[…] (SEQ ID NO:1) per mouse) by intraperitoneal injection without adjuvant.

No end group written: not given here.

Take DAEFRH [peptide, residues 1-6 of AβP]: the results for the IC50 in assay [1] and in assay [2] were 3 µM and 0.8 µM, respectively.
Take DAEFRHD [peptide, residues 1-7 of AβP]: the IC50 in assay [1] is 5 µM; in assay [2] it was 0.9 µM.
On to DAEFRHDSG, for which the IC50 in assay [1] is 5 µM; in assay [2], 1 µM.
Take “FRH: peptide, residues 4-6 of AβP (Amyloid-beta protein 40; UniProt P05067 675-677, looked up, fragment)”: the IC50 in assay [1] is around 1000 µM; in assay [2], 3000 µM.
Turning to “MAP-(EFRH)2: octavalent MAP carrying TyrGluPheArgHisTyrGluPheArgHis (SEQ ID NO:4), two EFRH epitopes per peptide (YEFRHYEFRH; also: octavalent lysine-core MAP)”, the “Immune response (serum IgG titers)” value in assay [3] is on record as “strong immune response”.
In the case of “βAP(1-40): full length β-amyloid peptide (1-40)”, the IC50 in assay [1] is 3 µM; in assay [2] it was 0.8 µM.
